In ChEMBL document CHEMBL1158164, “2-Deoxy-2,3-didehydro-N-acetylneuraminic acid analogs structurally modified by thiocarbamoylalkyl groups at the C-4 position: Synthesis and biological evaluation as inhibitors of human parainfluenza virus type 1” (Bioorg Med Chem, 2008) one finds IC50 data, which are given here for 4 molecules.

The experiment in a line: Inhibition of hPIV1 sialidase. On the set-up: species or system Human respirovirus 1.
Take `CC(=O)N[C@H]1[C@H]([C@H](O)[C@H](O)CO)OC(C(=O)O)=C[C@@H]1OCCC(N)=S`: the IC50 came to 68 µM.

Molecule `CC(=O)N[C@H]1[C@H]([C@H](O)[C@H](O)CO)OC(C(=O)O)=C[C@@H]1O` [NEU5AC2EN] displayed a 50% inhibitory concentration (IC50) of 300 µM.

Consider `CC(=O)N[C@H]1[C@H]([C@H](O)[C@H](O)CO)OC(C(=O)O)=C[C@@H]1OCCCC(N)=S`, for which 102 µM corresponded to half-maximal inhibition (IC50).

In turn, `CC(=O)N[C@H]1[C@H]([C@H](O)[C@H](O)CO)OC(C(=O)O)=C[C@@H]1OCC(N)=S` returned an IC50 of 9 µM.

What is called IC50 is the point on the concentration scale where inhibition reaches its midpoint.
